{"source": "paper PMC6832134", "about": "“Discovery of Novel Integrase Inhibitors Acting outside the Active Site Through High-Throughput Screening” (Molecules, 2019)", "key": {"HIV-1 integrase": {"biological_target": "T1, HIV-1 integrase (Human immunodeficiency virus type 1 group M subtype B, UniProt P12497)", "T1 construct": "250 nM of recombinant HIV-1 integrase; made in house; host or cells: E. coli RosettaII", "experiment": "Electrochemiluminescent integrase strand transfer assay (BioVeris), high-throughput screen", "format": "biochemical", "conditions": "for inhibition at 10 µM: single dose 10 µM, read-out: inhibition of IN ST activity", "method": "To enable a high-throughput screening, we used the ST assay developed by BioVeris. This proprietary plate-based assay measured stand transfer using electrochemiluminescent technology. First, we validated the assay using HIV-1 IN in the presence of DMSO, or increasing concentrations of a known inhibitor, MA-DKA (also known as 118-D-24, Figure 1A). […] Next, we used MA-DKA as a control in every test plate and screened a large library of molecules. Overall, 3095 compounds were tested as part of the NCI Developmental Therapeutics Program’s small molecule plated sets from the Open Chemical Repository Collection. […] A single dose testing (10 µM) enabled the identification of 130 molecules that inhibited ST by over 50% (light dashed line, Figure 1A). […] NSC153308 is a 2-phenacylsulfanylacetic acid that resembles the diketo acid chemotype. On the other side, NSC119889 is a xanthene derivative similar to V-165 [6]. […] However, the purpose of this study was to identify a new chemotype that might act on IN via a novel mechanism, distinct from known active site inhibitors. Accordingly, we retrieved the chemical structure of the 130 hits and looked for a chemical pattern different from that of conventional strand transfer inhibitors.\nThis electrochemiluminescent plate-based assay was performed using a BioVeris M-SERIES Analyzer (Gaithersburg, MD, USA). DNA substrates were obtained from BioVeris and used according to the manufacturer’s recommendations. Briefly, a biotinylated donor DNA was incubated for 30 min at 37 °C in the presence of 250 nM of recombinant HIV-1 integrase. Complexes were bound to paramagnetic streptavidin-coated beads (M-280 Dynabeads). After addition of the drug, the integration reaction was initiated by addition of a ruthenium-labeled target DNA. The reaction was carried out for 60 min at 37 °C, before reading on the BioVeris M-SERIES Analyzer."}, "HIV-1 IN [1]": {"biological_target": "T2, HIV-1 IN (Human immunodeficiency virus type 1 group M subtype B, UniProt P12497)", "T2 construct": "250 nM of recombinant HIV-1 integrase; made in house; host or cells: E. coli RosettaII", "set-up": "method as in PMID 12920196", "conditions": "ref [4], read-out: IC50, ST inhibition, cited from earlier work"}, "HIV-1 IN [2]": {"biological_target": "T2, HIV-1 IN", "set-up": "method as in PMID 12920196", "conditions": "regardless of metal cofactor; ref [4]; read-out: IC50, inhibition of 3'-P; cited from earlier work"}, "HIV-1 IN [3]": {"biological_target": "T2, HIV-1 IN", "experiment": "Gel-based IN 3'-processing assay", "format": "biochemical", "conditions": "at least three independent experiments, read-out: In Vitro IC50 +/−SD, 3'-P", "method": "(§1) IN reactions were carried out by adding drugs or an equivalent volume of 100% DMSO (dimethyl sulfoxide, used as the drug solvent) to a mixture of 20 nM duplex DNA (21T/21B) and 400 nM IN in 50 mM MOPS pH 7.2, 7.5 mM MgCl2, and 14 mM 2-mercaptoethanol. Reactions were performed at 37 °C for 2 h and quenched by addition of an equal volume of loading buffer [formamide containing 1% SDS (sodium dodecyl sulfate), 0.25% bromophenol blue, and xylene cyanol]. Reaction products were separated in 16% polyacrylamide denaturing sequencing gels. Dried gels were visualized using a Typhoon 8600 (GE Healthcare, Piscataway, NJ, USA). Densitometric analyses were performed using the ImageQuant 5.1 software from GE Healthcare. Data analyses (linear regression, IC50 determination, and standard deviation) were performed using Prism 6.05 software from GraphPad."}, "HIV-1 IN (WT)": {"biological_target": "T3, HIV-1 IN (WT) (Human immunodeficiency virus type 1 group M subtype B, UniProt P12497)", "T3 construct": "250 nM of recombinant HIV-1 integrase; made in house; host or cells: E. coli RosettaII", "experiment": "Gel-based IN strand transfer assay, WT enzyme", "format": "biochemical", "conditions": "gel-based assay, coupled ST, at least three independent experiments; read-out: In Vitro IC50 +/−SD, ST", "method": "as §1"}, "[4]": {"biological_target": "T4, HIV-1 IN mutant G140S/Q148H (Human immunodeficiency virus type 1 group M subtype B, UniProt P12497, G1287S/Q1295H)", "T4 construct": "RAL-resistant HIV-1 mutant integrases; made in house; host or cells: E. coli RosettaII", "experiment": "Gel-based IN strand transfer assay, G140S/Q148H mutant", "format": "biochemical", "method": "as §1"}, "HIV-1 IN mutant Y143R": {"biological_target": "T5, HIV-1 IN mutant Y143R (Human immunodeficiency virus type 1 group M subtype B, UniProt P12497, Y1290R)", "T5 construct": "RAL-resistant HIV-1 mutant integrases; made in house; host or cells: E. coli RosettaII", "experiment": "Gel-based IN strand transfer assay, Y143R mutant", "format": "biochemical", "method": "as §1"}, "HIV-1 IN mutant N155H [5]": {"biological_target": "T6, HIV-1 IN mutant N155H (Human immunodeficiency virus type 1 group M subtype B, UniProt P12497, N1302H)", "T6 construct": "RAL-resistant HIV-1 mutant integrases; made in house; host or cells: E. coli RosettaII", "experiment": "biochemical", "format": "biochemical", "method": "as §1"}, "[6]": {"test_system": "VSV pseudo-typed HIV-1 virus particles", "experiment": "organism not typed", "format": "cell-based", "conditions": "for EC50: read-out: Ex Vivo Antiviral Activity EC50"}, "HIV-1 IN [7]": {"biological_target": "T2, HIV-1 IN", "experiment": "Synergy test with the active site inhibitor MK-2048", "format": "biochemical", "conditions": "subinhibitory dose of stilbene disulfonic acid derivative; IC50 of MK-2048 not affected; data not shown"}, "in vitro": {"experiment": "in vitro", "conditions": "human"}, "HIV-1 IN mutant N155H [8]": {"test_system": "HIV-1 IN mutant N155H", "experiment": "biochemical", "format": "biochemical", "conditions": "N155H vs WT, Figure 2B", "method": "as §1"}}, "note": "Several values for one entry are separate records, joined by “and”; a condition that tells them apart may be missing. Equal values may be shown once. Read-outs that look alike come from different tables or passages of the source.", "data": [{"smiles": "O=C(O)C(=O)CC(=O)c1cccn1Cc1ccc(F)cc1", "note": "[MA-DKA]", "values": [{"measurement": "inhibition of IN ST activity", "setting": "HIV-1 integrase; at 10 µM, obtained from linear regression of the dose response in Figure 1A", "value": 94.8, "unit": "%"}, {"measurement": "IC50", "setting": "HIV-1 integrase; electrochemiluminescent plate-based assay, dose response, read-out: IC50, ST inhibition", "value": 163, "unit": "nM"}, {"measurement": "IC50", "setting": "HIV-1 IN [1]; magnesium as cofactor", "value": 330, "unit": "nM"}, {"measurement": "IC50", "setting": "HIV-1 IN [1]; manganese as cofactor", "value": 70, "unit": "nM"}, {"measurement": "IC50", "setting": "HIV-1 IN [2]", "value": 70, "unit": "µM"}]}, {"smiles": "Nc1ccc(/C=C/c2ccc(N)cc2S(=O)(=O)O)c(S(=O)(=O)O)c1", "note": "[NSC163]", "values": [{"measurement": "IC50", "setting": "HIV-1 IN [3]", "value": "> 111", "unit": "µM"}, {"measurement": "IC50", "setting": "HIV-1 IN (WT)", "value": "> 111", "unit": "µM"}]}, {"smiles": "Nc1ccc(/N=N/c2ccc(/C=C/c3ccc(/N=N/c4ccc(N)c5ccc(S(=O)(=O)O)cc45)cc3S(=O)(=O)O)c(S(=O)(=O)O)c2)c2cc(S(=O)(=O)O)ccc12", "note": "[NSC34933]", "values": [{"measurement": "IC50", "setting": "HIV-1 IN [3]", "value": "1.1 ± 0.3", "unit": "µM"}, {"measurement": "IC50", "setting": "HIV-1 IN (WT)", "value": "0.5 ± 0.2", "unit": "µM"}, {"measurement": "IC50", "setting": "[4]", "value": 320, "unit": "nM"}, {"measurement": "IC50", "setting": "HIV-1 IN mutant Y143R", "value": 95, "unit": "nM"}, {"measurement": "IC50", "setting": "HIV-1 IN mutant N155H [5]", "value": 91, "unit": "nM"}, {"measurement": "Selectivity Index SI", "setting": "[6]", "value": ">166"}, {"measurement": "EC50", "setting": "[6]", "value": 0.6, "unit": "µM"}, {"measurement": "synergy with active site inhibitor MK-2048", "setting": "HIV-1 IN [7]", "value": "could not see any cooperative effect"}, {"measurement": "CC50", "setting": "in vitro", "value": "> 100", "unit": "µM"}]}, {"smiles": "CCOc1ccc(/N=N/c2ccc(/C=C/c3ccc(/N=N/c4ccc(OCC)cc4)cc3S(=O)(=O)O)c(S(=O)(=O)O)c2)cc1", "note": "[NSC47745]", "values": [{"measurement": "IC50", "setting": "HIV-1 IN [3]", "value": "~3 µM and 3.2 µM"}, {"measurement": "IC50", "setting": "HIV-1 IN (WT)", "value": "~3 µM and 3.1 µM"}, {"measurement": "Selectivity Index SI", "setting": "[6]", "value": ">6.5"}, {"measurement": "EC50", "setting": "[6]", "value": 15.3, "unit": "µM"}, {"measurement": "CC50", "setting": "in vitro", "value": "> 100", "unit": "µM"}]}, {"smiles": "O=C(Nc1ccc(Sc2ccc(/N=N/c3c(O)c(S(=O)(=O)O)cc4cc(S(=O)(=O)O)ccc34)cc2)cc1)c1ccc(/N=N/c2c(O)ccc3c(S(=O)(=O)O)cc(S(=O)(=O)O)cc23)cc1", "note": "[NSC76027]", "values": [{"measurement": "inhibition at 10 µM", "setting": "HIV-1 integrase", "value": 62.8, "unit": "%"}]}, {"smiles": "O=C(O)c1c(Br)c(Br)c(Br)c(Br)c1C1c2ccc(O)cc2Oc2cc(O)ccc21", "note": "[NSC119889]", "values": [{"measurement": "inhibition at 10 µM", "setting": "HIV-1 integrase", "value": 98.5, "unit": "%"}]}, {"smiles": "O=C(O)CSCC(=O)c1ccccc1", "note": "[NSC153308]", "values": [{"measurement": "inhibition at 10 µM", "setting": "HIV-1 integrase", "value": 99.5, "unit": "%"}]}, {"smiles": "O=[N+]([O-])c1ccc(/C=C/c2ccc([N+](=O)[O-])cc2S(=O)(=O)O)c(S(=O)(=O)O)c1", "note": "[NSC163175]", "values": [{"measurement": "IC50", "setting": "HIV-1 IN [3]", "value": "> 111", "unit": "µM"}, {"measurement": "IC50", "setting": "HIV-1 IN (WT)", "value": "> 111", "unit": "µM"}]}, {"smiles": "O=S(=O)(O)c1cc(/N=N/c2cc(S(=O)(=O)O)c3cccnc3c2O)ccc1/C=C/c1ccc(/N=N/c2cc(S(=O)(=O)O)c3cccnc3c2O)cc1S(=O)(=O)O", "note": "[NSC638352]", "values": [{"measurement": "inhibition at 10 µM", "setting": "HIV-1 integrase", "value": 67.2, "unit": "%"}]}, {"smiles": "Cc1nnc(C(=O)NC(C)(C)c2nc(C(=O)NCc3ccc(F)cc3)c(O)c(=O)n2C)o1", "note": "[RAL, raltegravir, reference compound]", "values": [{"measurement": "loss of potency compared to the WT enzyme", "setting": "HIV-1 IN mutant N155H [8]", "value": "one to two orders of magnitude"}]}]}
